Experimental data from PubChem BioAssay (NCI).
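Briefly, cells in 96-well plates were exposed to five compound concentrations for 48 h, and endpoints were estimated by linear interpolation. GI50 is the concentration that inhibits growth by half. The concentration for full growth arrest is given as TGI.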

How the values were obtained:
Assay in all cases: inhibition of tumour cell growth, NCI panel, 48 h
OVCAR-3 ovarian = tested on: OVCAR-3 ovarian
DU-145 prostate = tested on: DU-145 prostate
RXF 393 renal = tested on: RXF 393 renal
UO-31 renal = tested on: UO-31 renal
SN12C renal = tested on: SN12C renal
K-562 leukemia = tested on: K-562 leukemia
UACC-62 melanoma = tested on: UACC-62 melanoma
SF-539 CNS = tested on: SF-539 CNS
HL-60(TB) leukemia = tested on: HL-60(TB) leukemia
T-47D breast = tested on: T-47D breast
UACC-257 melanoma = tested on: UACC-257 melanoma
SF-268 CNS = tested on: SF-268 CNS
SK-MEL-5 melanoma = tested on: SK-MEL-5 melanoma
SF-295 CNS = tested on: SF-295 CNS
SK-OV-3 ovarian = tested on: SK-OV-3 ovarian
TK-10 renal = tested on: TK-10 renal
SNB-75 CNS = tested on: SNB-75 CNS

Row | Structure (SMILES) | TGI (OVCAR-3 ovarian) | TGI (DU-145 prostate) | TGI (RXF 393 renal) | TGI (UO-31 renal) | TGI (SN12C renal) | TGI (K-562 leukemia) | TGI (UACC-62 melanoma) | TGI (SF-539 CNS) | TGI (HL-60(TB) leukemia) | TGI (T-47D breast) | TGI (UACC-257 melanoma) | TGI (SF-268 CNS) | TGI (SK-MEL-5 melanoma) | TGI (SF-295 CNS) | TGI (SK-OV-3 ovarian) | TGI (TK-10 renal) | TGI (SNB-75 CNS) | GI50 (K-562 leukemia) | GI50 (HL-60(TB) leukemia)
1 | COC(=O)c1c(C)cccc1C1CN=NC12Cc1c(C)cccc1C2=O (centres undefined) | > 100 µM | > 100 µM | > 100 µM | > 100 µM | > 100 µM | > 100 µM | > 100 µM | > 100 µM | > 100 µM | > 100 µM | > 100 µM | > 100 µM | > 100 µM | > 100 µM | > 100 µM | > 100 µM | > 100 µM | – | –
2 | CN(C)CCNc1ccc2nnn3c4ccc(Cl)cc4c(=O)c1c23 | 23 µM | 26.2 µM | 13.1 µM | 9.41 µM | 21.8 µM | 22.7 µM | 18.6 µM | 16.2 µM | 19.9 µM | 49.2 µM | 17.5 µM | 23.1 µM | 10.6 µM | 15.7 µM | 35.1 µM | 22.1 µM | 9.78 µM | – | –
3 | C[C@@H]1O[C@@H]2OCC[C@@H]2C2=C1C(=O)c1ccccc1C2=O | 10.2 µM | 21 µM | 13.3 µM | 22.8 µM | 29.8 µM | 32.7 µM | 17.4 µM | 22.3 µM | 19.1 µM | 31.9 µM | 24.5 µM | 16.9 µM | 19.2 µM | 33 µM | 89.9 µM | 34.1 µM | 41.9 µM | – | –
4 | CC(=O)OCC1OC(Sc2nc(-c3ccc(C)cc3)c(C#N)c(=O)n2C2OC(COC(C)=O)C(OC(C)=O)C(OC(C)=O)C2OC(C)=O)C(OC(C)=O)C(OC(C)=O)C1OC(C)=O (centres undefined) | > 100 µM | > 100 µM | > 100 µM | > 100 µM | > 100 µM | > 100 µM | > 100 µM | > 100 µM | 76.6 µM | > 100 µM | > 100 µM | > 100 µM | > 100 µM | > 100 µM | > 100 µM | > 100 µM | > 100 µM | > 100 µM | 25.5 µM
5 | COc1ccc(C(F)(F)F)cc1NC(=O)O/N=C(/Cl)C(C)C | 34.8 µM | 34.3 µM | 36.8 µM | 33.3 µM | 32.2 µM | 3.99 µM | 36.7 µM | 37 µM | > 21.8 µM | 45.5 µM | 42.5 µM | 53.7 µM | 25.5 µM | > 66.3 µM | > 67.3 µM | 28.4 µM | 44.4 µM | – | –
6 | COC(=O)c1ccc(NCc2cc(O)c3ccccc3c2O)cc1 | 28.2 µM | 30.3 µM | 48.9 µM | 26.7 µM | 40 µM | 6.97 µM | 10.3 µM | 28.6 µM | > 28.5 µM | 40.7 µM | 20.5 µM | > 73.1 µM | 3.15 µM | 19.9 µM | 31.6 µM | 39.1 µM | 56.6 µM | – | –
7 | O=C1C=CC(=O)c2c(O)c(Nc3ccc(OC(F)(F)F)cc3)c(Cl)c(O)c21 | 1.45 µM | 1.37 µM | 1.39 µM | 5.58 µM | 1.17 µM | 4.36 µM | 2.29 µM | 3.36 µM | 3.24 µM | 0.972 µM | 7.95 µM | 1.49 µM | 5.15 µM | 4.62 µM | 3.19 µM | 2.81 µM | 1.79 µM | – | –
8 | COc1ccc(OC)c2c1C(=O)C(Cl)=C(Cl)C2=O | 7.85 µM | 37.6 µM | 3.65 µM | 6.66 µM | 23.1 µM | > 100 µM | 6.9 µM | 11.6 µM | > 100 µM | 8.09 µM | 4.68 µM | 27 µM | 14.1 µM | 38.6 µM | 67.4 µM | 9.83 µM | 29.1 µM | – | –
9 | CCCCC/C=C1\CCC(CN2CCOCC2)C1=O (centres undefined) | 12.2 µM | 33.2 µM | 12.3 µM | 25.9 µM | 37.6 µM | 7 µM | 28.5 µM | 30 µM | 24.2 µM | 9.95 µM | 24.5 µM | 34 µM | 31.1 µM | 32.3 µM | 35.3 µM | 18.9 µM | 33.5 µM | – | –
10 | NC(Cc1ccc2oc3cc(=O)c4ccccc4c-3nc2c1)C(=O)O (centres undefined) | 81.5 µM | 32 µM | 99.8 µM | > 100 µM | 39.5 µM | 77.1 µM | 22.5 µM | 54.6 µM | 76.2 µM | > 84.7 µM | 39.3 µM | > 100 µM | 11.5 µM | 55.5 µM | > 100 µM | > 97.2 µM | 29.7 µM | – | –
11 | COC(=O)c1ccc(/C=N/c2cc(C)nn2-c2ccccc2)cc1 | 38.7 µM | > 100 µM | > 100 µM | > 100 µM | > 100 µM | > 100 µM | > 100 µM | > 100 µM | > 100 µM | 58 µM | 20.4 µM | > 100 µM | 83.2 µM | > 100 µM | > 100 µM | 6.18 µM | 96.8 µM | – | –
12 | N#C/C(=C\N1CCNC1=S)C(=O)c1ccc2ccccc2c1 | > 100 µM | > 100 µM | > 100 µM | > 100 µM | > 100 µM | > 100 µM | > 100 µM | > 100 µM | > 100 µM | > 100 µM | > 100 µM | > 100 µM | > 100 µM | > 100 µM | > 100 µM | > 100 µM | > 100 µM | – | –
13 | CC1=CC(=O)c2cccc(O)c2C1=O | 2.96 µM | 20.6 µM | 3.36 µM | 3.28 µM | 5.11 µM | 20 µM | 3.68 µM | 12.3 µM | 9.13 µM | 3.72 µM | 3.36 µM | 14.6 µM | 3.29 µM | 27.7 µM | 27.4 µM | 5.05 µM | 18 µM | – | –
14 | N=C(N)SC1c2ccccc2-c2cc([N+](=O)[O-])ccc21 (centres undefined) | 7.47 µM | 15.9 µM | 10.3 µM | 20.3 µM | 26.6 µM | 22 µM | 10.1 µM | 13.7 µM | 11.9 µM | 16.2 µM | 20.9 µM | 14.3 µM | 10.6 µM | 15.7 µM | 18.9 µM | 21.3 µM | 5.7 µM | – | –
15 | Cc1ccc(-c2n[nH]c(CC#N)n2)cc1 | > 100 µM | > 100 µM | > 100 µM | > 100 µM | > 100 µM | > 100 µM | > 100 µM | > 100 µM | > 100 µM | > 100 µM | > 100 µM | > 100 µM | > 100 µM | > 100 µM | > 100 µM | > 100 µM | > 100 µM | – | –
16 | OC(CCN1CCN(CCOC(c2ccc(F)cc2)c2ccc(F)cc2)CC1)c1ccccc1 (centres undefined) | 31.4 µM | 32.8 µM | 24.1 µM | 11.2 µM | 29.4 µM | 26.4 µM | 28.2 µM | 25.6 µM | 37.3 µM | 28.7 µM | 42.5 µM | 31.2 µM | 21 µM | 34.6 µM | 32.5 µM | 29.2 µM | 27.5 µM | – | –
17 | CN(C)c1ncc(-c2c[nH]c3ccccc23)nc1-c1c[nH]c2ccccc12 | 18.6 µM | 20.9 µM | 4.11 µM | 13.3 µM | 5.78 µM | 8.48 µM | 3.89 µM | 25.3 µM | > 100 µM | 19.9 µM | 3.89 µM | 25 µM | 15.9 µM | 6.48 µM | 20.4 µM | 22.1 µM | 5.59 µM | – | –
18 | CCN(CC)CC1CCCCN1CC(=O)N1c2ccc(Br)cc2C(=O)Nc2cccnc21 (centres undefined) | > 100 µM | > 100 µM | > 100 µM | 44.8 µM | > 100 µM | > 100 µM | > 100 µM | > 100 µM | > 100 µM | > 100 µM | > 100 µM | > 100 µM | > 100 µM | > 100 µM | > 100 µM | > 100 µM | 59.4 µM | – | –
19 | O=C(/C=C/c1ccc(O)c(O)c1)Oc1ccccc1 | 47.6 µM | 43.8 µM | 40.1 µM | 30.5 µM | 48.7 µM | > 100 µM | 35.9 µM | 88.5 µM | 20.1 µM | 65.2 µM | > 81.8 µM | 32 µM | 33 µM | 61.4 µM | > 100 µM | > 100 µM | 44.2 µM | – | –
20 | CC(C)C(OC(=O)c1cc(NC(=S)c2ccccc2)ccc1Cl)C(C)C | 52.5 µM | > 100 µM | 37.1 µM | 54.6 µM | 39.6 µM | > 100 µM | 38.9 µM | 65.5 µM | 55.8 µM | 29.5 µM | 58.5 µM | 82 µM | 29.9 µM | > 84.7 µM | 99.4 µM | > 86.3 µM | 59.1 µM | – | –
21 | S=c1scc(-c2ccc(Cl)cc2)n1OC1CCCC1 | 74.9 µM | > 100 µM | > 100 µM | > 100 µM | > 100 µM | > 100 µM | > 100 µM | 35.5 µM | 71.3 µM | > 100 µM | > 100 µM | > 100 µM | 24.4 µM | > 100 µM | > 100 µM | > 100 µM | > 100 µM | – | –
